Columns and labels:
Assay in all cases: relative viability (nuclei count vs DMSO), 5 days (fraction); higher = more cells survive
CAL-12T = test system: CAL-12T
In short: (§1)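 A single step with final 0.05% Triton X-100, 1% formaldehyde and 1 ug/ml Hoechst fixed the cells and stained nuclei 5 days after treatment. Lung cancer cell lines in 1536-well plates had been treated by pin tool the day after seeding with one drug alone or a fixed anchor-drug dose plus five library-drug doses (not always all listed) in √10 steps, and nuclei were counted on 4× images. Relative viability is the ratio of nuclei in treated wells to nuclei in vehicle wells, taken as the median of duplicate plates.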

ChaGo-K-1 = test system: ChaGo-K-1
In short: as §1

EMC-BAC-2 = test system: EMC-BAC-2
In short: as §1

HOP-62 = test system: HOP-62
In short: as §1

LC-2-ad = test system: LC-2-ad
In short: as §1

LK-2 = test system: LK-2
In short: as §1

NCI-H1355 = test system: NCI-H1355
In short: as §1

NCI-H1734 = test system: NCI-H1734
In short: as §1

NCI-H1993 = test system: NCI-H1993
In short: as §1

NCI-H2009 = test system: NCI-H2009
In short: as §1

NCI-H2085 = test system: NCI-H2085
In short: as §1

NCI-H2228 = test system: NCI-H2228
In short: as §1

NCI-H2347 = test system: NCI-H2347
In short: as §1

NCI-H2405 = test system: NCI-H2405
In short: as §1

NCI-H3122 = test system: NCI-H3122
In short: as §1

NCI-H596 = test system: NCI-H596
In short: as §1

NCI-H838 = test system: NCI-H838
In short: as §1

PC-14 = test system: PC-14
In short: as §1

RERF-LC-KJ = test system: RERF-LC-KJ
In short: as §1

SK-MES-1 = test system: SK-MES-1
In short: as §1

SW 1573 = test system: SW 1573
In short: as §1

Compound: O=C(O)CCCCC(CCSCc1ccccc1)SCc1ccccc1 (stereo not given) [CPI-613] + CCNC(=O)c1noc(-c2cc(C(C)C)c(O)cc2O)c1-c1ccc(CN2CCOCC2)cc1 [Luminespib] (partner 0.01 µM)
- relative viability (CAL-12T; first compound 5 µM): 0.349
- relative viability (CAL-12T; first compound 15.81 µM): 0.325
- relative viability (CAL-12T; first compound 50 µM): 0.377
- relative viability (CAL-12T; first compound 158.11 µM): 0.0292
- relative viability (CAL-12T; first compound 500 µM): 0.0074
- relative viability (ChaGo-K-1; first compound 5 µM): 0.533
- relative viability (ChaGo-K-1; first compound 15.81 µM): 0.61
- relative viability (ChaGo-K-1; first compound 50 µM): 0.596
- relative viability (ChaGo-K-1; first compound 158.11 µM): 0.204
- relative viability (ChaGo-K-1; first compound 500 µM): 0.11
- relative viability (EMC-BAC-2; first compound 5 µM): 1.15
- relative viability (EMC-BAC-2; first compound 15.81 µM): 1.08
- relative viability (EMC-BAC-2; first compound 50 µM): 1.16
- relative viability (EMC-BAC-2; first compound 158.11 µM): 0.396
- relative viability (EMC-BAC-2; first compound 500 µM): 0.0424
- relative viability (HOP-62; first compound 5 µM): 0.882
- relative viability (HOP-62; first compound 15.81 µM): 0.944
- relative viability (HOP-62; first compound 50 µM): 0.894
- relative viability (HOP-62; first compound 158.11 µM): 0.627
- relative viability (HOP-62; first compound 500 µM): 0.607
- relative viability (LC-2-ad; first compound 5 µM): 1.02
- relative viability (LC-2-ad; first compound 15.81 µM): 0.958
- relative viability (LC-2-ad; first compound 50 µM): 0.847
- relative viability (LC-2-ad; first compound 158.11 µM): 0.235
- relative viability (LC-2-ad; first compound 500 µM): 0.0688
- relative viability (LK-2; first compound 5 µM): 0.19
- relative viability (LK-2; first compound 15.81 µM): 0.198
- relative viability (LK-2; first compound 50 µM): 0.189
- relative viability (LK-2; first compound 158.11 µM): 0.153
- relative viability (LK-2; first compound 500 µM): 0.172
- relative viability (NCI-H1355; first compound 5 µM): 0.692
- relative viability (NCI-H1355; first compound 15.81 µM): 0.701
- relative viability (NCI-H1355; first compound 50 µM): 0.691
- relative viability (NCI-H1355; first compound 158.11 µM): 0.25
- relative viability (NCI-H1355; first compound 500 µM): 0.35
- relative viability (NCI-H1734; first compound 5 µM): 0.197
- relative viability (NCI-H1734; first compound 15.81 µM): 0.194
- relative viability (NCI-H1734; first compound 50 µM): 0.164
- relative viability (NCI-H1734; first compound 158.11 µM): 0.165
- relative viability (NCI-H1734; first compound 500 µM): 0.107
- relative viability (NCI-H1993; first compound 5 µM): 0.799
- relative viability (NCI-H1993; first compound 15.81 µM): 0.296
- relative viability (NCI-H1993; first compound 50 µM): 0.917
- relative viability (NCI-H1993; first compound 158.11 µM): 0.611
- relative viability (NCI-H1993; first compound 500 µM): 0.437
- relative viability (NCI-H2009; first compound 5 µM): 1.06
- relative viability (NCI-H2009; first compound 15.81 µM): 0.954
- relative viability (NCI-H2009; first compound 50 µM): 0.936
- relative viability (NCI-H2009; first compound 158.11 µM): 0.179
- relative viability (NCI-H2009; first compound 500 µM): 0.012
- relative viability (NCI-H2085; first compound 5 µM): 0.43
- relative viability (NCI-H2085; first compound 15.81 µM): 0.371
- relative viability (NCI-H2085; first compound 50 µM): 0.406
- relative viability (NCI-H2085; first compound 158.11 µM): 0.177
- relative viability (NCI-H2085; first compound 500 µM): 0.118
- relative viability (NCI-H2228; first compound 5 µM): 0.145
- relative viability (NCI-H2228; first compound 15.81 µM): 0.205
- relative viability (NCI-H2228; first compound 50 µM): 0.137
- relative viability (NCI-H2228; first compound 158.11 µM): 0.141
- relative viability (NCI-H2228; first compound 500 µM): 0.0612
- relative viability (NCI-H2347; first compound 5 µM): 0.279
- relative viability (NCI-H2347; first compound 15.81 µM): 0.344
- relative viability (NCI-H2347; first compound 50 µM): 0.746
- relative viability (NCI-H2347; first compound 158.11 µM): 0.548
- relative viability (NCI-H2347; first compound 500 µM): 0.833
- relative viability (NCI-H2405; first compound 5 µM): 0.657
- relative viability (NCI-H2405; first compound 15.81 µM): 0.711
- relative viability (NCI-H2405; first compound 50 µM): 0.622
- relative viability (NCI-H2405; first compound 158.11 µM): 0.736
- relative viability (NCI-H2405; first compound 500 µM): 0.727
- relative viability (NCI-H3122; first compound 5 µM): 0.0787
- relative viability (NCI-H3122; first compound 15.81 µM): 0.088
- relative viability (NCI-H3122; first compound 50 µM): 0.0889
- relative viability (NCI-H3122; first compound 158.11 µM): 0.0798
- relative viability (NCI-H3122; first compound 500 µM): 0.0712
- relative viability (NCI-H596; first compound 5 µM): 0.954
- relative viability (NCI-H596; first compound 15.81 µM): 0.955
- relative viability (NCI-H596; first compound 50 µM): 1.12
- relative viability (NCI-H596; first compound 158.11 µM): 0.168
- relative viability (NCI-H596; first compound 500 µM): 0.0176
- relative viability (NCI-H838; first compound 5 µM): 0.249
- relative viability (NCI-H838; first compound 15.81 µM): 0.243
- relative viability (NCI-H838; first compound 50 µM): 0.24
- relative viability (NCI-H838; first compound 158.11 µM): 0.122
- relative viability (NCI-H838; first compound 500 µM): 0.0891
- relative viability (PC-14; first compound 5 µM): 0.158
- relative viability (PC-14; first compound 15.81 µM): 0.185
- relative viability (PC-14; first compound 50 µM): 0.167
- relative viability (PC-14; first compound 158.11 µM): 0.129
- relative viability (PC-14; first compound 500 µM): 0.0407
- relative viability (RERF-LC-KJ; first compound 5 µM): 1.28
- relative viability (RERF-LC-KJ; first compound 15.81 µM): 1.22
- relative viability (RERF-LC-KJ; first compound 50 µM): 1.23
- relative viability (RERF-LC-KJ; first compound 158.11 µM): 0.235
- relative viability (RERF-LC-KJ; first compound 500 µM): 0.198
- relative viability (SK-MES-1; first compound 5 µM): 0.772
- relative viability (SK-MES-1; first compound 15.81 µM): 0.659
- relative viability (SK-MES-1; first compound 50 µM): 0.666
- relative viability (SK-MES-1; first compound 158.11 µM): 0.163
- relative viability (SK-MES-1; first compound 500 µM): 0.0794
- relative viability (SW 1573; first compound 5 µM): 0.254
- relative viability (SW 1573; first compound 15.81 µM): 0.295
- relative viability (SW 1573; first compound 50 µM): 0.138
- relative viability (SW 1573; first compound 158.11 µM): 0.0967
- relative viability (SW 1573; first compound 500 µM): 0.0725

From the supplement of paper PMC10307832
